Reference: patent US12728107B2, “Sirtuin activator, and method for activating sirtuin” (Yuki Gosei Kogyo Co., Ltd., priority 2020, dated 2026)
Where two headings read alike, the source gives them in different places.

What was measured:
[1] = tested on: senescence-associated β-galactosidase (SA-β-Gal) in skin dermal fibroblasts; test: Senescence marker SA-β-Gal activity (C12FDG fluorescence) in etoposide-treated skin dermal fibroblasts; conditions: FIG. 4
[2] = tested on: Sirt6 gene; conditions: skin dermal cells; culture supernatant of C2C12 cells treated with β-alanine; FIG. 3
Description: (§1) In this example, the activation of the sirtuin gene in skin dermal cells via a substance secreted from muscle cells (C2C12 cells) by β-alanine was examined.
(§2) C2C12 cells were seeded in 5-mL Dish at 2.0×10^5 cells/well, and 48 hours later, the medium was replaced with DMEM medium containing 2% HS to induce differentiation. The culture medium was changed every 2 days to a new medium, and differentiation was induced. Then, the medium was changed every 2 days and β-alanine was added, and the culture supernatant was collected after 8 days of culture. 1×PBS was added to the control cells. After 24 hours of the addition, sample was secondary added, and the culture supernatant was collected after 24 hours of the second addition of sample.
(§3) Specifically, cells were seeded at a concentration of 3.0×10^4 cells/mL in a 5 mL dish.
(§4) RNA extraction from cells, cDNA synthesis, and RT-PCR were performed by the same procedure as in Example 2. The sequences of the used primers of the human sirt6 gene are as follows.

[3] = tested on: Sirt1 gene; conditions: skin dermal cells; culture supernatant of C2C12 cells treated with β-alanine; FIG. 3
Description: as §1, §2, §3, §4

[4] = tested on: Sirt3 gene; conditions: skin dermal cells; culture supernatant of C2C12 cells treated with β-alanine; FIG. 3
Description: as §1, §2, §3, §4

[5] = tested on: Sirt1 gene; conditions: differentiated C2C12 cells; β-alanine 500 μM and 1 mM; added twice, 24 h apart; vs 1×PBS control; FIG. 1
[6] = tested on: Sirt1 gene; conditions: HaCaT cells; β-alanine 500 μM and 10 mM; added twice, 24 h apart; vs 1×PBS control; FIG. 2
Description: (§5) In this example, a transcription of the Sirt1 gene and Sirt3 gene in HaCaT cells, a human epidermal keratinocyte cell line, was measured.
(§6) HaCaT cells were seeded in 6-well plates at 6.0×10^4 cells/well. After 24 hours, β-alanine was added to the cells, and 1×PBS was added to the control cells. After 24 hours of the addition, sample was secondary added, and the medium was aspirated after 24 hours of the second addition of sample. Then, 1×PBS was added at 1 mL/well to wash the cells. RNA extraction from cells, cDNA synthesis, and RT-PCR were performed by the same procedure as in Example 1. The sequences of the used primers of the human sirtuin genes are as follows.

[7] = tested on: Sirt3 gene; conditions: HaCaT cells; β-alanine 500 μM and 10 mM; added twice, 24 h apart; vs 1×PBS control; FIG. 2
Description: as §5, §6

[8] = tested on: Sirt3 gene; conditions: differentiated C2C12 cells; β-alanine 500 μM and 1 mM; added twice, 24 h apart; vs 1×PBS control; FIG. 1

Row | SMILES | fluorescence intensity of C12FDG (SA-β-Gal activity) ([1]; dermal fibroblasts, etoposide 50 μM for 30 minutes, vs DMSO control) | expression of Sirt6 [2] | expression of Sirt1 [3] | expression of Sirt3 [4] | expression of Sirt1 [5] | expression of Sirt1 [6] | expression of Sirt3 [7] | fluorescence intensity of C12FDG (SA-β-Gal activity) ([1]; etoposide-treated dermal fibroblasts, culture supernatant of β-alanine-treated C2C12 cells, 48 hours) | expression of Sirt3 [8]
1 | COc1cc([C@@H]2c3cc4c(cc3[C@@H](O[C@@H]3O[C@@H]5CO[C@@H](C)O[C@H]5[C@H](O)[C@H]3O)[C@H]3COC(=O)[C@H]23)OCO4)cc(OC)c1O [etoposide, reference compound] | significantly enhanced | – | – | – | – | – | – | – | –
2 | NCCC(=O)O [β-alanine, 3-aminopropanoic acid] | – | enhanced | enhanced | enhanced | enhanced | enhanced | enhanced | decreased | enhanced
